Data reported in the NIST ThermoML archive (doi:10.1021/je7003758).
Numbers after ± are expanded uncertainties.

Settings: 298.15 K; 100 kPa; Liquid

Structure (SMILES)	mass density [kg/m3]
ClCCCl [1,2-dichloroethane]	1245.5 ± 0.6
ClCCCCCl [1,4-dichlorobutane]	1133.7 ± 3.4
ClCCCCCCCl [1,6-dichlorohexane]	1063.8 ± 1.4
CCCCCl [1-chlorobutane]	880.6 ± 0.3
CCCCCCCl [1-chlorohexane]	873.1 ± 0.6
CCCCCCCCCl [1-chlorooctane]	868.8 ± 1.3

Same assay, conditions: 298.15 K; 10000 kPa; Liquid

mass density [kg/m3]	Structure (SMILES)
1255.1 ± 1	ClCCCl [1,2-dichloroethane]
